{
  "source": "ChEMBL document CHEMBL1130757",
  "about": "“Synthetic arabinofuranosyl oligosaccharides as mycobacterial arabinosyltransferase substrates” (1998)",
  "assay_type_in_all_cases": "functional",
  "key": {"[1]": {"system": "Mycolicibacterium smegmatis", "assay": "Tested for recognition of mycobacterial arabinosyl transferase incubated with 14C1 labeled decaprenol arabinofuranosyl phosphate in the presence of membrane extracts from Mycobacterium smegmatis in experiment 1 (%incorporation = 13.8)"}, "[2]": {"system": "Mycolicibacterium smegmatis", "assay": "Tested for recognition of mycobacterial arabinosyl transferase incubated with 14C1 labeled decaprenol arabinofuranosyl phosphate in the presence of membrane extracts from Mycobacterium smegmatis in experiment 2 (%incorporation = 15.8)"}, "[3]": {"system": "Mycolicibacterium smegmatis", "assay": "Average value of incorporation for recognition of mycobacterial arabinosyl transferase in experiments 1, 2 and 3 (%incorporation = 14)"}, "[4]": {"system": "Mycolicibacterium smegmatis", "assay": "Tested for recognition of mycobacterial arabinosyl transferase incubated with 14C1 labeled decaprenol arabinofuranosyl phosphate in the presence of membrane extracts from Mycobacterium smegmatis in experiment 3 (%incorporation = 12.4)"}, "[5]": {"system": "Mycolicibacterium smegmatis", "assay": "Tested for recognition of mycobacterial arabinosyl transferase incubated with 14C1 labeled decaprenol arabinofuranosyl phosphate in the presence of membrane extracts from Mycobacterium smegmatis in experiment 1 (%incorporation = 16.4)"}, "[6]": {"system": "Mycolicibacterium smegmatis", "assay": "Tested for recognition of mycobacterial arabinosyl transferase incubated with 14C1 labeled decaprenol arabinofuranosyl phosphate in the presence of membrane extracts from Mycobacterium smegmatis in experiment 2 (%incorporation = 15.2)"}, "[7]": {"system": "Mycolicibacterium smegmatis", "assay": "Average value of incorporation for recognition of mycobacterial arabinosyl transferase in experiments 1 and 2 (%incorporation = 16.1)"}, "[8]": {"system": "Mycolicibacterium smegmatis", "assay": "Tested for recognition of mycobacterial arabinosyl transferase incubated with 14C1 labeled decaprenol arabinofuranosyl phosphate in the presence of membrane extracts from Mycobacterium smegmatis in experiment 2 (%incorporation = 12.9)"}, "[9]": {"system": "Mycolicibacterium smegmatis", "assay": "Tested for recognition of mycobacterial arabinosyl transferase incubated with 14C1 labeled decaprenol arabinofuranosyl phosphate in the presence of membrane extracts from Mycobacterium smegmatis in experiment 1 (%incorporation = 12.9)"}, "[10]": {"system": "Mycolicibacterium smegmatis", "assay": "Average value of incorporation for recognition of mycobacterial arabinosyl transferase in experiments 1, 2 and 3 (%incorporation = 12.7)"}, "[11]": {"system": "Mycolicibacterium smegmatis", "assay": "Tested for recognition of mycobacterial arabinosyl transferase incubated with 14C1 labeled decaprenol arabinofuranosyl phosphate in the presence of membrane extracts from Mycobacterium smegmatis in experiment 1 (%incorporation = 19.1)"}, "[12]": {"system": "Mycolicibacterium smegmatis", "assay": "Average value of incorporation for recognition of mycobacterial arabinosyl transferase in experiments 1, 2 and 3 (%incorporation = 17.2)"}, "[13]": {"system": "Mycolicibacterium smegmatis", "assay": "Tested for recognition of mycobacterial arabinosyl transferase incubated with 14C1 labeled decaprenol arabinofuranosyl phosphate in the presence of membrane extracts from Mycobacterium smegmatis in experiment 2 (%incorporation = 16.1)"}, "[14]": {"system": "Mycolicibacterium smegmatis", "assay": "Tested for recognition of mycobacterial arabinosyl transferase incubated with 14C1 labeled decaprenol arabinofuranosyl phosphate in the presence of membrane extracts from Mycobacterium smegmatis in experiment 3 (%incorporation = 16.4)"}, "[15]": {"system": "Mycolicibacterium smegmatis", "assay": "Tested for recognition of mycobacterial arabinosyl transferase incubated with 14C1 labeled decaprenol arabinofuranosyl phosphate in the presence of membrane extracts from Mycobacterium smegmatis in experiment 3 (%incorporation = 18.2)"}, "[16]": {"system": "Mycolicibacterium smegmatis", "assay": "Tested for recognition of mycobacterial arabinosyl transferase incubated with 14C1 labeled decaprenol arabinofuranosyl phosphate in the presence of membrane extracts from Mycobacterium smegmatis in experiment 2 (%incorporation = 22.5)"}, "[17]": {"system": "Mycolicibacterium smegmatis", "assay": "Tested for recognition of mycobacterial arabinosyl transferase incubated with 14C1 labeled decaprenol arabinofuranosyl phosphate in the presence of membrane extracts from Mycobacterium smegmatis in experiment 1 (%incorporation = 21.9)"}, "[18]": {"system": "Mycolicibacterium smegmatis", "assay": "Average value of incorporation for recognition of mycobacterial arabinosyl transferase in experiments 1, 2 and 3 (%incorporation = 20.8)"}},
  "data": [
    {"smiles": "CO[C@H]1O[C@H](CO[C@H]2O[C@H](CO)[C@@H](O[C@H]3O[C@H](CO)[C@@H](O)[C@@H]3O)[C@@H]2O)[C@@H](O)[C@@H]1O", "values": [
      {"measurement": "Incorporation", "setting": "[1]", "value": 5513, "unit": "c.p.m."},
      {"measurement": "Incorporation", "setting": "[2]", "value": 6326, "unit": "c.p.m."},
      {"measurement": "Average", "setting": "[3]", "value": 5600, "unit": "c.p.m."},
      {"measurement": "Incorporation", "setting": "[4]", "value": 4960, "unit": "c.p.m."}
    ]},
    {"smiles": "CO[C@H]1O[C@H](CO[C@H]2O[C@H](CO[C@H]3O[C@H](CO)[C@@H](O)[C@@H]3O)[C@@H](O[C@H]3O[C@H](CO)[C@@H](O)[C@@H]3O)[C@@H]2O)[C@@H](O)[C@@H]1O", "values": [
      {"measurement": "Incorporation", "setting": "[5]", "value": 6540, "unit": "c.p.m."},
      {"measurement": "Incorporation", "setting": "[6]", "value": 6092, "unit": "c.p.m."},
      {"measurement": "Average", "setting": "[7]", "value": 6433, "unit": "c.p.m."}
    ]},
    {"smiles": "CO[C@H]1O[C@H](CO[C@H]2O[C@H](CO)[C@@H](O)[C@@H]2O)[C@@H](O)[C@@H]1O", "values": [
      {"measurement": "Incorporation", "setting": "[8]", "value": 5148, "unit": "c.p.m."},
      {"measurement": "Incorporation", "setting": "[9]", "value": 5148, "unit": "c.p.m."},
      {"measurement": "Average", "setting": "[10]", "value": 5095, "unit": "c.p.m."},
      {"measurement": "Incorporation", "setting": "[4]", "value": 4990, "unit": "c.p.m."}
    ]},
    {"smiles": "CO[C@H]1O[C@H](CO)[C@@H](O[C@H]2O[C@H](CO)[C@@H](O)[C@@H]2O)[C@@H]1O", "values": [
      {"measurement": "Incorporation", "setting": "[11]", "value": 7632, "unit": "c.p.m."},
      {"measurement": "Average", "setting": "[12]", "value": 6876, "unit": "c.p.m."},
      {"measurement": "Incorporation", "setting": "[13]", "value": 6432, "unit": "c.p.m."},
      {"measurement": "Incorporation", "setting": "[14]", "value": 6563, "unit": "c.p.m."}
    ]},
    {"smiles": "CO[C@H]1O[C@H](CO[C@H]2O[C@H](CO[C@H]3O[C@H](CO)[C@@H](O)[C@@H]3O)[C@@H](O)[C@@H]2O)[C@@H](O)[C@@H]1O", "values": [
      {"measurement": "Incorporation", "setting": "[15]", "value": 7271, "unit": "c.p.m."},
      {"measurement": "Incorporation", "setting": "[16]", "value": 9011, "unit": "c.p.m."},
      {"measurement": "Incorporation", "setting": "[17]", "value": 8732, "unit": "c.p.m."},
      {"measurement": "Average", "setting": "[18]", "value": 8338, "unit": "c.p.m."}
    ]}
  ]
}
